Data set [1] is described as follows: Time-resolved fluorescence lifetime (TCSPC). Format: physicochemical. Here is the method:
Fluorescence lifetimes were determined by using the Time-Correlation Single Photon Counting (TCSPC) accessory to the FluroMax-4 (Horiba, NJ). NanoLED pulse light sources at wavelengths of 352 nm and 390 nm were used for excitation. For each decay curve, 10,000 photons were collected. Fluorescence lifetime decays were fitted with an exponential series according to equation 1 below:
[formula] where F(t) is the lifetime decay function with respect to time t, Ti is the lifetime value of the emitting species, A is the background offset, and Bi is the pre-exponential function of the emitting species. The method of least squares was used to quantify χ^2 based on the decay data and the fitting function, where χ^2 values smaller than 1.2 indicates a good fit; and values above 1.2 indicate need for multiple exponential fitting in equation 1. If the lifetime decay is dominated by one emitting species, the equation can be simplified to include only the first two terms. One exponential fitting is good for TPA based fluorophores. However, for DPR based fluorophores, only three exponential fitting gives a χ^2 smaller than 1.2. E. Computational Modeling
Absorbance Spectra were recorded on Tecan Infinite M200 Pro UV-vis spectroscopy, and fluorescence spectra were recorded on Horiba FluoroMax-4 fluorospectroscopy at concentrations below 0.1 O.D. unless otherwise indicated. Quantum Yields were measured on the Quantum φ Integrating Sphere accessory to the FluoroMax-4, while lifetime measurements were determined through the Time-Correlation Single Photon Counting (TCSPC) accessory to the FluroMax-4. TCSPC was utilized in conjunction with NanoLED pulsed diode light source with peak excitation wavelength at 352 nm and at 10,000 counts peak preset. Emission was collected at the fluorescence λmax, unless otherwise indicated. For all pH-dependence experiments, sample pH was adjusted with sulfuric acid or sodium hydroxide. For all chloride-dependent quenching experiments, magnesium chloride hexahydrate (Sigma Aldrich) was used.
Fluorescence lifetime decays were fitted with an exponential series according to equation 5 below:
[formula] Where F(t) is the lifetime decay function with respect to time t, Ti is the lifetime value of the emitting species, A is the background offset, and Bi is the pre-exponential function of the emitting species. If the lifetime decay is dominated by one emitting species, the equation can be simplified to include only the first two terms. Bi measures the relative amplitude of the specified fluorophore, where the percent contribution of the fluorophore to the lifetime decay, f, is derived from equation 6:
[formula] The method of least squares was used to quantify χ^2 based on the decay data and the fitting function, where χ^2 values under 1.2 indicates a good fit, and values above 1.2 indicate need for additional terms in equation 5. Typically, an additional exponential term was necessary to improve the χ^2 value and account for the presence of a negligible 6 ns species, deemed to stem from by-products of CFD synthesis, impurities, or CFD dimers. Since the contribution from this species was minor, often less than 5%, it was not included in lifetime analysis.

Data set [2] in a line: Photostability under continuous excitation for 3 hours. The class given is physicochemical. The conditions noted are these: for photobleaching relative to Fluorescein and Rhodamine B: 3 hours continuous excitation. Here is the method:
Fluorescence spectra were recorded by a Horiba FluoroMax-4 spectrofluorometer. All samples were measured at a concentration corresponding to an optical density of 0.1 in water and a slit size of 1 nm by 1 nm unless specified. Quantum yields were also determined on same spectrofluorometer by using a Quantum-φ integration sphere at samples' maximum excitation wavelength and at an increment of 0.3 nm. Photostability studies were done by continuously exciting samples at their maximum excitation wavelength and monitoring at the maximum emission wavelength.
Fluorescence spectra were recorded on a Horiba FluoroMax-4 spectrofluorometer (Horiba Scientific, Edison N.J.). All polymer and samples were characterized at a concentration of 2 wt % in 1,4-dioxane and a slit size of 1 nm by 1 nm unless otherwise specified. The fluorescence properties of small molecule dyes were also measure in 2 wt % DI water solutions at same conditions as polymer solutions. BPLPs were also degraded in 1M K2CO3 solution at 37° C. for 24 hours and then neutralized with 1N HCl solution to pH7. The resulting degradation solutions were subject to further PL characterizations. Quantum yields were also determined on the same spectrofluorometer by using a Quantum-φ integration sphere (Horiba Scientific, Edison N.J.) at the same concentration and slit size with the blank solvent as the reference. Photostability of small molecules and polymers were determined by monitoring the emission intensity decay at their max. Excitation and emission wavelengths over 3 hours of continuous lumination in the spectrofluorometer.
Photostability of CFDs was characterized thereafter, since traditional organic dyes suffer from photobleaching. Various CFDs were tested under their maximum excitation and emission wavelengths for 3 hours, and the photoluminescence was normalized to the initial intensity.

For data set [3], the system named is NIH 3T3 mouse fibroblasts. The experiment in a line: In vitro cytotoxicity, CCK-8 cell viability assay. Format: cell-based. The conditions noted are these: for cell viability: 24 h. Here is the method:
NIH 3T3 mouse fibroblasts (ATCC) were used as model cells for in vitro cytotoxicity evaluations. The cells were cultured in Dulbecco's modified eagle's medium (DMEM), which had been supplemented with 10% fetal bovine serum (FBS) and 1% penicillin streptomycin. The culture flasks were kept in an incubator maintained at 37° C., 5% CO2, and 95% relative humidity. For a typical cytotoxicity study, 3T3 cells were seeded with a density of 5×10^4 cells/ml. […] of cell suspension in DMEM was added to each well in a 96-well plate and then incubated for 24 h. The culture medium was changed to 100 μL of DMEM containing the CFDs with various concentrations and followed by another 24 h incubator. A CCK-8 cell viability assay was used for a quantitative assessment of the viable cells according to the manufacturer's protocol. Viability of cells was normalized to the control of tissue culture plates (n=5).
The in vitro toxicity of CFDs was evaluated by incubating them with NIH 3T3 mouse fibroblasts at different concentrations. […] Therefore, CFDs are generally biocompatible fluorescent compounds that can be used at a high dosage. […] The red fluorescence was relatively weak since CA-Cys has relatively weak red fluorescence emission.

The mark [4] stands for this setting: 2500 μg/ml, vs control (p<0.01).

Take `CC(C(=O)O)N1C(=O)C=C(C(=O)O)CC1=O` (centres unmarked) [CA-Ala]: in data set [1] (three exponential model), the “fluorescence lifetime τ1” value was found to be 0.95 ns, the “fluorescence lifetime τ2” value was 4.44 ns and the “fluorescence lifetime τ3” value is listed as 10.35 ns. In addition, the “photobleaching relative to Fluorescein and Rhodamine B” value in data set [2] was “photobleaching on par with Fluorescein but more resistant than Rhodamine B”. The cell viability entry in data set [3] (1000 μg/ml, vs control) is given as “no significant decrease in cell viability”. The cell viability result in data set [3] (setting [4]) is reported as “significant decrease”.

Turning to `O=C(O)c1cc2n(c(=O)c1)C(C(=O)O)CS2` (centres unmarked) [CA-Cys], the τ in data set [1] (Anion protolytic state) is recorded as 11.19 ns; in data set [1] (Dianion protolytic state (physiological pH)), 10.06 ns; in data set [1] (Neutral protolytic state), “Quenched”. In addition, the “fluorescence lifetime τ” value in data set [1] (one-exponential decay, pulsed excitation at 352 nm, maximum emission wavelength) is reported as 10.46 ns. Further, the “photobleaching relative to Fluorescein and Rhodamine B” value in data set [2] is given as “less stable”. The photostability result in data set [2] (FIG. 19) is “strong photostability”. The luminescence lost result in data set [2] (after 3 hours continuous excitation) is listed as “less than 3%”. The compound further had a fluorescence remaining in data set [2] (after continuous UV excitation for 3 hours) of 95%. Moreover, the cell viability result in data set [3] (1000 μg/ml, vs control) is listed as “no significant decrease in cell viability”; in data set [3] (setting [4]) it was “significant decrease”. Moreover, the “dosage with in-vitro cytocompatibility” value in data set [3] (3T3 cell line) was “up to 10.3 mM”.

Values taken from patent US10648917B2, “Luminescent compositions and applications thereof” (THE PENN STATE RESEARCH FOUNDATION, priority 2015, dated 2020).
